In patent publication US20040009507A1, “Concatenated nucleic acid sequence” (Domantis, Ltd., priority 2000, published 2004):
Positions of bridges follow the written chain, without caps; N, C: chain ends. Residues, ends and D or L forms follow the SMILES beside them.

Key:
[1] = biological target: T1, ferritin (Equus caballus, UniProt P02791+Q8MIP0); assay: Apparent dissociation constant of n-unit HKPRKE MBP fusions for ferritin; parameters: species or system horse; conditions: n-unit of HKPRKE motif fused to maltose-binding protein
T1 construct: ferritin (from horse spleen, Sigma cat. F-4503); purchased Sigma F-4503; host or cells: horse spleen
From the text: In contrast, the results from the Fd-1×6-mer, Fd-2×6-mer, and Fd-4×6-mer peptide libraries indicate that concatenation is crucial to reach the selection threshold for binding to ferritin. […] By competition ELISA, we observed that these peptide constructs had affinities to ferritin very similar to that of peptide F6. […] In a randomised polypeptide, the likelihood that down-mutations will offset up-mutations increases with its length, so that ultimately most longer polypeptides will have average sequence profiles. […]
For competition ELISA with ferritin-binding peptide, serial dilutions of MBP-fusions (see below) were incubated with 10 nM biotinylated ferritin in 2% MPBS overnight at 4° C., then added to pre-blocked MBP-(HKPRKE)8-coated wells for 30 min. Bound biotinylated ferritin was detected by incubation with streptavidin horseradish peroxidase conjugate (Sigma) and OPD.
Apparent dissociation constants were calculated using the BIAevaluation program and the 1:1 Langmuir dissociation model from sensorgrams (BIAcore) collected upon immobilisation of 200-400 resonance units (RU) of biotinylated ligands (sEPOR-Fc or MBP-fusion) on SA-sensor chips followed by injection of various analytes (sEPOR-Fc, MBP-fusion, 0.1 to 2 μM concentration range) diluted in HBS-EP buffer (BIAcore), at a flow rate of 80 μl/min at 25° C.

[2] = biological target: T2, EC-EpoR-Fc (Homo sapiens, UniProt P19235); assay: Competition ELISA with synthetic trMP peptide, phage binding to immobilised EC-EpoR-Fc
T2 construct: (EC-EpoR, amino acids 1 to 225); made in house; host or cells: Pichia pastoris X-33 (pPICZαA, secreted)
T2 sequence (P19235 25-249): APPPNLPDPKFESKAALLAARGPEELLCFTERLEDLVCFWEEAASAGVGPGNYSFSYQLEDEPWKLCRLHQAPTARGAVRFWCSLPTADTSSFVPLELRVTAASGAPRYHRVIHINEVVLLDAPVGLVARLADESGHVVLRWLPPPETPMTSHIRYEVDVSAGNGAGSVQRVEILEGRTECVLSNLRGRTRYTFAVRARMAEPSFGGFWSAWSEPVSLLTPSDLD
Protocol: Without a crystal structure of the MP/Ec-EpoR-Fc complex, it is however unclear whether the contribution of an MP residue in these parts to EC-EpoR-Fc binding is related to direct peptide-receptor interaction or to intra-molecular interactions. In an attempt to delineate the MP peptide binding site on EC-EpoR-Fe, a competition ELISA using a synthetic truncated version of the MP peptide (trMP, from A3 to Y28) was performed. […] A similar result (i.e. binding outside the biological ligand-binding site) has been reported for the symmetrical molecule SB-247464 which recognises the homodimeric G-CSF receptor (Tian et al., 1998). Large and complex proteins with modular architecture indeed appear to have multiple ligand-binding sites located at the slits between symmetrical modules.
For competition ELISA with synthetic trMP peptide (see below), serial dilutions of MP peptide (starting from 1 mM) were mixed with 2.5×10^8 phage in 2% MPBS, then added to pre-blocked EC-EpoR-Fc-coated wells for 2 hours. Bound phage were detected as described above. […] Bound EC-EpoR-Fc was detected with protein A-horseradish peroxidase conjugate ( 1/4000 dilution, Sigma), and o-phenylene diamine dihydrochloride (OPD) as substrate. After 10-15 minutes, the reactions were stopped with 50 μl of 4 N H2SO4 and absorbances were measured at 492 nm.

T1 sequence (P02791 2-175 limits assumed): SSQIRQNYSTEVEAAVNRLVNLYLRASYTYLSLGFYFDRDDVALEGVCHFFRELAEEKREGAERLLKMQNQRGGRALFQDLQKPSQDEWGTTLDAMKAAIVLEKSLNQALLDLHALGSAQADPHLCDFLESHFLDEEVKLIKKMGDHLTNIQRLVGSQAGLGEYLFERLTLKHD
T1 sequence (Q8MIP0 whole entry, the tested form may be a part): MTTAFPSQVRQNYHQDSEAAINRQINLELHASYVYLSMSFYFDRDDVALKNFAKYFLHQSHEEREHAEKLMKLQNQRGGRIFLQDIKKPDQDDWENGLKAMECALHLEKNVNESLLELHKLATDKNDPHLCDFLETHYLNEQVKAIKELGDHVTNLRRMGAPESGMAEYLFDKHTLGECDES

| Compound | Kd [1] [µM] | IC50 ([2]; read-out: IC50 for blocking MP phage-peptide binding to immobilised EC-EpoR-Fc) [µM] | effect on signal of phage displaying the EMP1 peptide ([2]; trMP concentration up to 1 mM) |
| --- | --- | --- | --- |
| (HKPRKE)4 [F6 peptide] | ~0.5 |  |  |
| CC(C)C[C@H](NC(=O)[C@@H](NC(=O)[C@H](C)NC(=O)CNC(=O)[C@H](Cc1c[nH]cn1)NC(=O)[C@@H]1CSSC[C@H](NC(=O)[C@H](C)N)C(=O)N[C@@H](Cc2c[nH]cn2)C(=O)NCC(=O)N[C@@H](C)C(=O)N[C@@H]([C@@H](C)O)C(=O)N[C@@H](CC(C)C)C(=O)N[C@@H](CCC(=O)O)C(=O)N[C@@H](CCC(N)=O)C(=O)N[C@@H]([C@@H](C)O)C(=O)N[C@@H](Cc2ccc(O)cc2)C(=O)N[C@@H](C)C(=O)N[C@@H](CC(C)C)C(=O)N2CCC[C@H]2C(=O)N[C@@H](CC(C)C)C(=O)N[C@@H](C)C(=O)N1)[C@@H](C)O)C(=O)N[C@@H](CCC(=O)O)C(=O)N[C@@H](CCC(N)=O)C(=O)N[C@H](C(=O)N[C@@H](Cc1ccc(O)cc1)C(=O)O)[C@@H](C)O [trMP, NH2-ACHGATLEQTYALPL ACHGATLEQTY-CO2H] (H-ACHGATLEQTYALPLACHGATLEQTY-OH; disulfide 2-17 (inferred)) |  | 10 | no reduction in signal |
